How the values were obtained:
Assay in all cases: greenhouse pre-emergence herbicidal test
Assay type in all cases: in vivo
Settings in all cases: 250 g/ha, scale 0 to 100
[1] = tested on: Echinocloa crus-galli
In short: (§1)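 Seeds sown in loamy sand (~3.0% humus); compounds suspended or emulsified in water, sprayed directly after sowing, pots covered until rooting. Kept at 10-25° C. or 20-35° C. by species for 2 to 4 weeks. Damage scored visually 0-100 (100 = no emergence or complete aerial destruction).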

[2] = tested on: Amaranthus retroflexus
In short: as §1

[3] = tested on: Setaria faberi
In short: (§2)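 Compounds suspended or emulsified in water were sprayed onto loamy sand (about 3.0% humus) right after sowing; pots were hooded until rooting. Damage was scored on a 0–100 scale (100 = no emergence or complete aerial destruction, 0 = normal growth) after 2 to 4 weeks.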

[4] = tested on: Abutilon theophrasti
In short: as §2

[5] = tested on: Alopercurus myosuroides
In short: as §1

Structure (SMILES)	herbicidal activity [1] [%]	herbicidal activity [2] [%]	herbicidal activity [3] [%]	herbicidal activity [4] [%]	herbicidal activity [5] [%]
CC(C)(F)c1nc(N)nc(Nc2c(F)cccc2OCc2ccsc2)n1 [Example 22]	100	100	100	100	
Cc1ccccc1COc1cccc(F)c1Nc1nc(N)nc(C(C)(C)F)n1 [Example 30]	100	100	100	100	
Nc1nc(Nc2c(F)cccc2OCc2ccccc2)nc(C2(F)CCCCC2)n1 [Example 31]	100	75		85	
CCC(F)c1nc(N)nc(Nc2c(F)cccc2OCc2ccccc2)n1 (centres unmarked) [Example 35]	100	100	100	100	
CC(C)(F)c1nc(N)nc(Nc2c(F)cccc2OCc2nc(C3CC3)no2)n1 [Example 42]		100		80	
CC(C)(F)c1nc(N)nc(Nc2c(F)cccc2OCc2cc(F)cc(F)c2)n1 [Example 43]	100	100		100	
CC(C)(F)c1nc(N)nc(Nc2c(F)cccc2OCc2cccc(Cl)c2)n1 [Example 47]	80	100		100	
CC(C)(F)c1nc(N)nc(Nc2c(F)cccc2OCc2ncco2)n1 [Example 70]	100	100		100	
CC(C)(F)c1nc(N)nc(Nc2c(Cl)cccc2OCc2ccccc2)n1 [Example 85]			70	90	70
COc1ccccc1COc1cccc(F)c1Nc1nc(N)nc(C(C)(C)F)n1 [Example 100]	100	100		80	
CC(C)(F)c1nc(N)nc(Nc2c(C#N)cccc2OCc2ccccc2)n1 [Example 128]		100	90	90	
COC(C)(C)c1nc(N)nc(Nc2c(F)cccc2OC(F)(F)c2cccc(F)c2)n1 [Example 131]		85	90	90	
COc1cccc(COc2c(F)ccc(F)c2Nc2nc(N)nc(C(C)(C)F)n2)c1 [Example 139]	100	100	100	100	
CC(C)(F)c1nc(N)nc(Nc2c(F)c(F)cc(F)c2OCc2c(F)cccc2F)n1 [Example 165]	100			100	100
CC(C)(F)c1nc(N)nc(Nc2c(F)ccc(F)c2OCc2c(F)cccc2F)n1 [Example 167]			100	100	100
COc1ccccc1COc1c(F)ccc(F)c1Nc1nc(N)nc(C(C)(C)F)n1 [Example 173]	100	100		100	
CC(C)(F)c1nc(N)nc(Nc2c(F)cc(F)c(F)c2OCc2ccccc2)n1 [Example 188]	100			100	100
Nc1nc(Nc2c(F)c(F)cc(F)c2OCc2ccccc2)nc(C2(F)CCCC2)n1 [Example 199]	100			100	100
CC(C)c1ccccc1COc1c(F)cc(F)c(F)c1Nc1nc(N)nc(C(C)(C)F)n1 [Example 208]		80		90	

Structure (SMILES)	herbicidal activity [1] [%]	herbicidal activity [2] [%]	herbicidal activity [3] [%]	herbicidal activity [4] [%]	herbicidal activity [5] [%]
COc1ccccc1COc1c(F)cc(F)c(F)c1Nc1nc(N)nc(C(C)(C)OC)n1 [Example 214]			90	100	98
COC(C)(C)c1nc(N)nc(Nc2c(F)c(F)cc(F)c2OCc2ccccc2C)n1 [Example 226]	100			90	100
COC(C)(C)c1nc(N)nc(Nc2c(F)c(F)cc(F)c2OCc2ccc(C)cc2)n1 [Example 228]	90			100	100
Cc1ccccc1COc1c(F)cc(F)c(F)c1Nc1nc(N)nc(C(C)F)n1 (centres unmarked) [Example 229]	100			100	100
Cc1ccc(COc2c(F)cc(F)c(F)c2Nc2nc(N)nc(C(C)F)n2)cc1 (centres unmarked) [Example 231]	98			98	98
CC(C)(F)c1nc(N)nc(Nc2c(F)c(F)cc(F)c2OCc2ccccc2Br)n1 [Example 232]	100		100	100	
CC(C)CC(F)c1nc(N)nc(Nc2c(F)cccc2OCc2ccccc2)n1 (centres unmarked) [Example 233]	95			75	80
CC(C)(F)c1nc(N)nc(Nc2c(F)c(F)cc(Cl)c2OCc2ccccc2)n1 [Example 234]	100			100	90
CC(C)(F)c1nc(N)nc(Nc2c(F)c(F)c(F)c(F)c2OCc2ccccc2)n1 [Example 236]	100			100	95
COC(C)c1nc(N)nc(Nc2c(F)c(F)cc(F)c2OCc2ccccc2Cl)n1 (centres unmarked) [Example 243]	85		85	85	
COC(C)c1nc(N)nc(Nc2c(F)c(F)cc(F)c2OCc2cccc(Cl)c2)n1 (centres unmarked) [Example 244]		75	75	85	
CC(C)(Cl)c1nc(N)nc(Nc2c(F)c(F)cc(F)c2OCc2ccccc2)n1 [Example 246]	100	100		100	
COC(C)(C)c1nc(N)nc(Nc2c(F)c(F)cc(F)c2OCc2ccccc2F)n1 [Example 248]	100	100		100	
COC(C)(C)c1nc(N)nc(Nc2c(F)c(F)cc(F)c2OCc2cccc(F)c2)n1 [Example 249]	100		100	100	
COC(C)(C)c1nc(N)nc(Nc2c(F)c(F)cc(F)c2OCc2ccc(F)cc2)n1 [Example 250]	100	100		100	
COC(C)(C)c1nc(N)nc(Nc2c(F)c(F)cc(F)c2OCc2ccccc2Cl)n1 [Example 251]	95		100	98	
COC(C)(C)c1nc(N)nc(Nc2c(F)c(F)cc(F)c2OCc2cccc(Cl)c2)n1 [Example 252]		95	100	100	
CC(C)c1nc(N)nc(Nc2c(F)c(F)cc(F)c2OCc2ccccc2)n1 [Example 254]	100		100	100	

— patent US11992012B2, “Diaminotriazine compounds” (BASF SE, priority 2018, dated 2024)
